Measurements taken from US9857359B2, “Methods for determining drug efficacy using cereblon-associated proteins” (CELGENE CORPORATION, priority 2012, dated 2018).

Tests used:
Assay type in all cases: cell-based
[1] = tested on: Aiolos peptide containing lysine 203; assay: UbiScan mass spectrometry of ubiquitylated proteins in multiple myeloma cells
Description: Mass spectrometry of ubiquitylated proteins (Ubiscan™): Cell Signaling Technology's UbiScan™ proteomics platform was used to identify and quantify differences in ubiquitination in primary human T cells untreated (Treatment 1) or treated with Treatment 2 or Treatment 3, and in MM cell lines treated with immunomodulatory compounds in the presence or absence of the proteasome inhibitor MG132. The UbiScan™ method combines the isolation of ubiquitinated peptides from protease digested protein extracts using CST's proprietary immunoaffinity purification method with the identification and quantitation of peptides by liquid chromatography, tandem mass spectrometry (LC-MS/MS). The quantification of ubiquitination is based on the abundance of the ubiquitinated peptides recovered by antibody immunoprecipitation. The abundance or intensity information for each ubiquitinated peptide is based on the peak height of that peptide measured in the MS1 channel. The confidence in the calculated fold change is dependent on a number of factors, an important one being the intensity or peak height of the ubiquitinated peptide. Samples were analyzed by LC-MS/MS on an ORBITRAP VELOS™ mass spectrometer. […] Label-free quantitation was performed by comparing peak intensities of the same peptide ion in each sample to generate their corresponding fold-changes. […]

Ikaros [2] = target: T1, Ikaros (Homo sapiens, UniProt Q13422); assay: Ikaros western blots in MM cells, T cells and B cells; parameters: endogenous in cells; host or cells: U266, DF15 (and other MM lines), primary CD3+ T cells, primary CD19+ B cells; settings: for Reduction of Ikaros levels compared with other treatment compounds for MM: MM cells
Method: U266 cells were obtained from ATCC (American Type Culture Collection, Manassas, Va., USA). DF15 cells were obtained from John Shaughnessy (University of Arkansas, Little Rock, Ark., USA). CD19+ B cells were purchased from HemaCare BioResearch Products (Van Nuys, Calif.). Cells were grown in RPMI-1640 medium (Cellgro, Manassas, Va.) containing 10% (V/V) heat-inactivated fetal bovine serum (Gibco, Grand Island, N.Y., USA) supplemented with 2 mM glutamine. […] Primary T cells were isolated from human leukocytes (Blood Center of New Jersey, East Orange, N.J.) by centrifugation through FICOLL® centrifugation medium following the ROSETETTESEP™ protocol (Stem Cell Technologies, Vancouver, Canada). […] Dexamethasone (Sigma, St. Louis, Mo.), melphalan (Sigma, St. Louis, Mo.) and bortezomib (Selleck Chemicals, Houston, Tex.) treated was for 6 hours. The final DMSO concentration is 0.1%. Cells were pre-treated with 10 μM MG-132 (Calbiochem Biochemicals, Billerica, Mass.) for 30 minutes prior to drug addition. Cells were harvested, washed in PBS and cell lysates separated on SDS-PAGE gels (Bio-Rad, Hercules, Calif.). Membranes were immunoblotted with anti-Aiolos (Santa Cruz Biotechnology, Dallas, Tex.), anti-Ikaros (Millipore, Billerica, Mass.) and anti-Actin (Sigma, St. Louis, Mo.; or LI-COR Biosciences, Lincoln, Nebr.) and secondary antibodies (LI-COR Biosciences, Lincoln, Nebr.). The blots were analyzed on ODESSEY® imager (LI-COR Biosciences, Lincoln, Nebr.).
Cell lysates were separated on a 10% TGX SDS-PAGE gel (Bio-Rad) and blotted for Aiolos (Santa Cruz, sc-10198), Ikaros (Millipore, ABD16) and Actin (Sigma, AC15).

Ikaros [3] = target: T1, Ikaros; assay: Ikaros in siCRBN transfected primary CD3+ T cells; parameters: endogenous in cells; host or cells: U266, DF15 (and other MM lines), primary CD3+ T cells, primary CD19+ B cells; settings: siCRBN vs siControl, 6/24 hours
Method: Primary T cells were isolated from human leukocytes (Blood Center of New Jersey, East Orange, N.J.) by centrifugation through FICOLL® centrifugation medium following the ROSETETTESEP™ protocol (Stem Cell Technologies, Vancouver, Canada). Purified T cells were treated with 1 μg/mL PHA-L (Sigma, St. Louis, Mo.) at 37° C. for 24 hours then transfected with either siCRBN or siAiolos (Invitrogen) (200 nM siRNA/100 μL T buffer/8×10^6 cells/shot×5 shots) using NEON® Transfection System (Invitrogen, Grand Island, N.Y.) with program 2100 voltage+15 width+2 pulse. Low GC content siRNA (Invitrogen, Grand Island, N.Y.) was transfected as negative control. Transfected cells were pooled and cultured in OKT3 (3 μg/mL, eBioscience, San Diego, Calif.) coated 10 cm dish with 20 ml RPMI containing 10% FBS at 37° C. for 24 hours. Cells were collected for measuring CRBN or Aiolos knockdown efficiency by western blot (anti-Aiolos: Santa Cruz, sc-10198, lot.C-0212) and qRT-PCR (Applied Biosystem, gene expression CRBN Hs00372271_ml; IKZF3 ID#:Hs00232635_ml). […] Aiolos and Ikaros protein expression was determined by immunoblot analysis using antibodies against Aiolos (Santa Cruz, Dallas, Tex.) and Ikaros (Millipore, Billerica, Mass.). […] Supernatants were harvested and IL-2 protein detected by ELISA (Thermo Scientific, Lafayette, Colo.). […]

[4] = 10 μM lenalidomide, 1 μM pomalidomide, U266, DF15 MM cells, primary CD3+ T cells, primary CD19+ B cells, cycloheximide treated U266
[5] = six MM cell lines (OPM-2, RPMI-8226, LP-1, U266, H929 and JJN3), various concentrations

T1 sequence (Q13422 whole entry): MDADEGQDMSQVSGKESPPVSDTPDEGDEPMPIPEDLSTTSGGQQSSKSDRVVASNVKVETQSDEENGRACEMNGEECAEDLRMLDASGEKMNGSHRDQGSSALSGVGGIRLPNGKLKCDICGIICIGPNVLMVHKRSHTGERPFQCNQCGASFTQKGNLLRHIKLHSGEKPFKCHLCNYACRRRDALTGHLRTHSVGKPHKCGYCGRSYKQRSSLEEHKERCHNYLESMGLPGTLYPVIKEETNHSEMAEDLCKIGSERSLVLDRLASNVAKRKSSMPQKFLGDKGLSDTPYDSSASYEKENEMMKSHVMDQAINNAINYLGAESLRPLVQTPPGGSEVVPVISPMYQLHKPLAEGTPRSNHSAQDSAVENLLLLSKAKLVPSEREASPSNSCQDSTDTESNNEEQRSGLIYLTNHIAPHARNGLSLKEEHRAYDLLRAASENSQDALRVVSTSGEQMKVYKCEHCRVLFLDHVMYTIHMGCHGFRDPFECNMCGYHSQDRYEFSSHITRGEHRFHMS

**Q.** Which “Ubiquitination of Aiolos peptide containing lysine 203” value [1] does the source give for `Nc1cccc2c1CN(C1CCC(=O)NC1=O)C2=O` (stereo not shown) [lenalidomide] here?
**A.** The value was “enhance the ubiquitination of Aiolos peptide containing lysine 203”.

**Q.** What about the Ikaros expression (Ikaros [2]; [4]) of the same compound?
**A.** The Ikaros expression was “reduced the expression of Aiolos and Ikaros”.

**Q.** What about the “Reduction of Ikaros levels compared with other treatment compounds for MM” value (Ikaros [2]) of the same compound?
**A.** Its value is “unique to immunomodulatory compounds provided herein”.

**Q.** What about the Ikaros expression (Ikaros [2]; [5]) of the same compound?
**A.** Its Ikaros expression is “significantly inhibited Aiolos and Ikaros expression”.

**Q.** What about the “Effect in reducing or inhibiting the expression of Ikaros where CRBN is knocked-down” value (Ikaros [3]) of the same compound?
**A.** Its value is “significantly reduced as compared to the control cells with no CRBN knock-down”.

**Q.** For `Nc1cccc2c1C(=O)N(C1CCC(=O)NC1=O)C2=O` (stereo not shown) [pomalidomide, reference compound], which “Ubiquitination of Aiolos peptide containing lysine 203” value [1] is on record?
**A.** The value was “enhance the ubiquitination of Aiolos peptide containing lysine 203”.

**Q.** And the Ikaros expression (Ikaros [2]; [4])?
**A.** Its Ikaros expression is “reduced the expression of Aiolos and Ikaros”.

**Q.** What about the “Reduction of Ikaros levels compared with other treatment compounds for MM” value (Ikaros [2]) of the same compound?
**A.** Its value is “unique to immunomodulatory compounds provided herein”.

**Q.** And the Ikaros expression (Ikaros [2]; [5])?
**A.** Its Ikaros expression is “significantly inhibited Aiolos and Ikaros expression”.

**Q.** What about the “Effect in reducing or inhibiting the expression of Ikaros where CRBN is knocked-down” value (Ikaros [3]) of the same compound?
**A.** The value was “significantly reduced as compared to the control cells with no CRBN knock-down”.
